“Also recorded” adds a separate entry of the source.
How the values were obtained:
Type in all cases: cell-based
[1] = test system: MCF-7 cells; experiment: CCK-8 antiproliferative activity on MCF-7 cells
Procedure: (§1) DMEM high glucose medium and fetal calf serum were obtained from Gibco (New York, NY, USA), and cell counting Kit-8 solution was purchased from Meilunbio (Dalian, China). Paraformaldehyde and Crystal Violet were purchased from Biosharp (Hefei, China). The MCF-7 and L-02 cell lines were purchased from the Shanghai Institute of Biochemistry (Shanghai, China) All the target compounds and 5-fluorouracil (5-Fu) were dissolved with DMSO at a concentration of 20 mM. Cell culture medium was a mixture of DMEM medium, 10% fetal bovine serum, and 1% penicillin–streptomycin solution stored at […]. The cells were grown at 37 °C under 5% CO2.
(§2) Cells were seeded into 96 well plates with 4000 cells/well using DMEM solution and incubated in a humid atmosphere containing 5% CO2 at 37 °C for 24 h. Compounds with different concentrations (200 μM, 100 μM, 50 μM, 25 μM, 12.5 μM, 6.25 μM, 3.125 μM, 1.5625 μM) were added to the culture medium for 24 h. After that, CCK-8 reagent (10 μL) was added under dark conditions and incubated the plate in a CO2 incubator at 37 °C for 2 h. After incubation, the absorbance was measured using an enzyme-linked immunosorbent assay at a wavelength of 450 nm. Cell survival rate was calculated as a percentage of the control group.
(§3) By using Graph Pad Prism 8.0 software, the concentration that inhibits 50% of maximum cell proliferation was determined to be IC50 value.

[2] = test system: human normal hepatocyte L-O2; experiment: CCK-8 cytotoxicity against normal hepatocyte L-O2 cells; conditions: for IC50: human normal hepatocyte L-O2, CCK-8, 24 h
Procedure: We have selected compounds A7, A8, A9, and A14 with relatively low IC50 values, which are considered to have more potential and are more meaningful for further research. The toxic effects of compounds A7, A8, A9, and A14 on normal hepatocytes cells L-O2 were assessed in this work to examine the selective toxicity of the new compounds on cancer cells without harming normal cells. The selectivity index was calculated as a ratio of L-02 IC50/MCF-7 IC50 for these four compounds. […] Therefore, A8 and A14 were chosen as representative medications for future research after thorough evaluation.
as §1, §2, §3

[3] = test system: MCF-7 cells; experiment: Migration ability assay (wound healing / scratch); conditions: various concentrations, 24 h and 48 h, vs control group
Procedure: An obvious feature of breast cancer cells is their strong migration ability. In order to study the inhibitory effect of compounds on breast cancer cells migration, the scratch distances of compounds A8 and A14 on MCF-7 cells at different concentrations were measured by wound healing experiments. […] Moreover, under similar concentrations, the inhibitory migration effect of the target compound on MCF-7 is more excellent than that of the control drug 5-Fu.
MCF-7 cells were seeded into six-well plates at a density of 3000 cells/well and growing for 24 h. Scratches were made in confluent monolayers with 200 μL pipette tip. After that, each well was washed with PBS buffer 3 times to remove non-adherent cell debris. MCF-7 cells were continually incubated with different concentrations of compounds or positive control for 24 or 48 h. The area of cells migrated across the wound was photographed using phase contrast microscopy at 0 h, 24 h, and 48 h. The migration distance of cells into the wound area was measured by ImageJ2 software at room temperature.

[4] = test system: MCF-7 cells; experiment: Cell colony formation assay; conditions: 7 days treatment, drug concentrations greater than 8 µmol/L, vs blank control
Procedure: MCF-7 cells were seeded into six-well plates at a density of 1000 cells/well and cultivated for 24 h. After that, the cells were continually incubated with different concentrations of compounds and positive control for 7 days. Each well was carefully rinsed three times with PBS buffer quickly at room temperature. Collected cells were fixed for 1 h at room temperature by adding 2 mL of 4% paraformaldehyde solution. The results were analyzed using the ImageJ software.

| IC50 ([1]; Homo sapiens, MCF7, CCK-8, 24 h treatment) | IC50 ([1]; CCK-8, 24 h treatment) | Structure (SMILES) | IC50 [2] | Selectivity Index (SI) ([2]; ratio L-02 IC50/MCF-7 IC50) | Inhibition of MCF-7 cell migration (scratch distance) [3] | Colony formation of MCF-7 cells [4] |
| --- | --- | --- | --- | --- | --- | --- |
| 169 µM | – | O=c1[nH]cc(F)c(=O)[nH]1 [Compound 5-Fu, 5-fluorouracil, reference compound] | 200 µM | 1.18 | – | – |
| – | 19.6 µM | COc1cc(C(=O)/C=C/c2ccc(C(=O)NCC3CC3)cc2)cc(OC)c1OC [Compound A9, (E)-N-(cyclopropylmethyl)-4-(3-oxo-3-(3,4,5-trimethoxyphenyl)prop-1-en-1-yl) benzamide] | 35.3 µM | – | – | – |

The remaining lines, values behind:

| Structure (SMILES) | IC50 ([1]; Homo sapiens, MCF7, CCK-8, 24 h treatment) | IC50 ([1]; CCK-8, 24 h treatment) | IC50 [2] | Selectivity Index (SI) ([2]; ratio L-02 IC50/MCF-7 IC50) | Inhibition of MCF-7 cell migration (scratch distance) [3] | Colony formation of MCF-7 cells [4] |
| --- | --- | --- | --- | --- | --- | --- |
| COc1cc(C(=O)/C=C/c2ccc(C(=O)NCc3cccs3)cc2)cc(OC)c1OC [Compound A7, (E)-4-(3-oxo-3-(3,4,5-trimethoxyphenyl)prop-1-en-1-yl)-N-(thiophen-2-ylmethyl) benzamide] | – | 19.1 µM | – | – | – | – |
| COc1cc(C(=O)/C=C/c2ccc(C(=O)NCC3CCOC3)cc2)cc(OC)c1OC (stereo not drawn) [Compound A8, (E)-4-(3-oxo-3-(3,4,5-trimethoxyphenyl)prop-1-en-1-yl)-N-((tetrahydrofuran-3-yl)methyl) benzamide] | – | 16.7 µM | 47.2 µM | – | inhibited MCF-7 cell migration; also recorded: effectively inhibited the migration of MCF-7 cells in a dose-dependent manner | – |
| COc1cc(C(=O)/C=C/c2ccc(C(=O)OCCCSc3ccncc3)cc2)cc(OC)c1OC [Compound A14, 3-(pyridin-4-ylthio) propyl (E)-4-(3-oxo-3-(3,4,5-trimethoxyphenyl)prop-1-en-1-yl) benzoate] | – | – | 41.2 µM | – | inhibited MCF-7 cell migration; also recorded: effectively inhibited the migration of MCF-7 cells in a dose-dependent manner | significantly reduced |

From article PMC10649752, “Design and Synthesis of Novel Chalcone Derivatives: Anti-Breast Cancer Activity Evaluation and Docking Study” (International Journal of Molecular Sciences, 2023)
